Measured values: US7863416B2, “Nociceptin-based analgesics” (Synvax, Inc., priority 2001, dated 2011)
Like-named read-outs stand apart in the source and are kept apart here. Numbered stars: 1 amine (or outer) side, 2 acyl side, 3 side chain; on linkers, the order of the positions; unused ones are H or OH. Square brackets hold non-standard residues; d marks the D form. Peptide text beside a SMILES is read from it. * marks the point of attachment. X1 = O=C([C@H](CCc1ccc([N+](=O)[O-])cc1[N+](=O)[O-])N[*:1])[*:2]; Phe(4-CH2SO3H) = N[C@@H](Cc1ccc(CS(=O)(=O)O)cc1)C(=O)O; Phe(4-NO2) = N[C@@H](Cc1ccc([N+](=O)[O-])cc1)C(=O)O; Phe(4-CH2NH2) = NCc1ccc(C[C@H](N)C(=O)O)cc1; Tyr(3-Cl) = N[C@@H](Cc1ccc(O)c(Cl)c1)C(=O)O; Phe(4-NH2) = Nc1ccc(C[C@H](N)C(=O)O)cc1; Phe(4-F) = N[C@@H](Cc1ccc(F)cc1)C(=O)O; Dmt = Cc1cc(O)cc(C)c1C[C@H](N)C(=O)O; Tyr(BN∗,3-Cl) = not defined here; Dab = NCC[C@H](N)C(=O)O; Dap = NC[C@H](N)C(=O)O; Hexanoyl = CCCCCC(=O)*; Pentanoyl = CCCCC(=O)*; Ahx = NCCCCCC(=O)O

Assays:
[1] = In vivo test for analgesic activity and potentiation of morphine analgesia
human ORL1 [2] = target: T1, human ORL1 (Homo sapiens, UniProt P41146); assay: [3H]nociceptin binding to membranes of CHO cells transfected with human ORL1; details: for Hill Coefficient: Table 5
T1 construct: expressed in transfected cells; host or cells: CHO cells (G418-selected)
T1 sequence (P41146 whole entry): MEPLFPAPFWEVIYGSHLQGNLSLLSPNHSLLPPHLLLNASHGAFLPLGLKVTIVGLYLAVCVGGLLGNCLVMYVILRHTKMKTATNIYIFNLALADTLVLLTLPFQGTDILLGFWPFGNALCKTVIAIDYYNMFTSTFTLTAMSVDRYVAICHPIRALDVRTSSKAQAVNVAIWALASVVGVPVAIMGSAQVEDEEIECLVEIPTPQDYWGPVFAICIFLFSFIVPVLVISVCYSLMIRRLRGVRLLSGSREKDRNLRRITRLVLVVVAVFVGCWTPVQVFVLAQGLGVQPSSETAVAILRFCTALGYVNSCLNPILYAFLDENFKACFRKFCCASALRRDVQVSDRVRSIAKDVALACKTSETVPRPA

human ORL1 [3] = target: T1, human ORL1; assay: Antagonism of nociceptin-stimulated [35S]GTPγS binding (inhibition, Schild analysis); assay type: biochemical
human ORL1 [4] = target: T1, human ORL1; assay: Stimulation of [35S]GTPγS binding in membranes of CHO cells transfected with human ORL-1; assay type: biochemical; details: for [35S]GTPγS Binding Percent Stimulation: relative to nociceptin; for agonist/antagonist character at ORL1: in words; for EC50 ± SEM, stimulation of [35S]GTPγS binding: Table 6; for Emax: read-out: % Stimulation ± SEM of [35S]GTPγS binding
Description: First, CHO cells transfected with human ORL-1 are scraped from tissue culture dishes into 20 mM HEPES, 1 mM EDTA, and then centrifuged at 500×g for 10 minutes. The cells are then re-suspended in this buffer and homogenized using a Polytron Homogenizer.
The cellular homogenate is next centrifuged at 20,000×g for 20 minutes. Following this, the resulting pellet is re-suspended in a buffer containing 20 mM HEPES, 10 mM MgCl2, and 100 mM NaCl, having a resulting pH of 7.4. The suspension is then re-centrifuged at 20,000×g and suspended once more in the above-listed buffer. The pellet may be frozen at −70° C. prior to the final centrifugation. For the binding assay, membranes (10-20 μg protein) are incubated with [^35S]GTPγγS (50 pM), GDP (usually 10 μM), and the desired compound. The total volume of the mixture is 1 ml, which is incubated for 60 min at 25° C.
Following incubation, samples are filtered over glass fiber filters and counted. […]
In these [^35S]GTPγS assays, binding was conducted as described above. EC50 values and percent stimulation were determined using the program Prism.

mice [5] = assay: Tail flick assay, peptide combined with morphine and/or N/OFQ (morphine-induced analgesia); assay type: in vivo
Description: The modified Boniferroni Test was used for these planned comparisons (p value was set at P<0.036). Doses were determined based on the potency of the compounds tested.
The antagonist was next assayed for the ability to reverse the inhibition of morphine-induced analgesia. In this assay, the control received morphine alone, while test animals received morphine +3 nmol of the antagonist, morphine +10 nmol of the antagonist. […] For each of these animals, response was measured at 5, 10, and 20 minutes after intracerebroventricular injection.
The agonist VII-87-B was further investigated by evaluating its ability to reverse morphine-induced analgesia. In this assay, the control animal received 10 nmols of morphine alone, while test animals received morphine +0.1 nmol of the agonist, morphine +1.0 nmol of the agonist, or morphine +10.0 nmol of the agonist. For each of these animals, response was measured at 5, 10, and 20 minutes after intracerebroventricular injection.
The agonist VII-39-D was then further investigated by evaluating its ability to reverse morphine-induced analgesia. In this assay, the control animal received 10 nmols of morphine alone, while test animals received morphine +0.1 nmol of the agonist, morphine +1.0 nmol of the agonist, or morphine +10.0 nmol of the agonist. For each of these animals, response was measured at 5, 10, and 20 minutes after intracerebroventricular injection.

mice [6] = assay: Tail flick assay, peptide alone, intracerebroventricular injection

Row | Compound | Hill Coefficient (human ORL1 [2]) | EC50 ± SEM, stimulation of [35S]GTPγS binding (human ORL1 [4]) | Emax (human ORL1 [4]) [%] | further results
1 | CCCCCC(=O)N[C@@H](CCCNC(=N)N)C(=O)N[C@@H](Cc1ccc(O)cc1)C(=O)N[C@@H](Cc1ccc(O)cc1)C(=O)N[C@@H](CCCNC(=N)N)C(=O)N[C@@H](Cc1c[nH]c2ccccc12)C(=O)N[C@@H](CCCNC(=N)N)C(N)=O [IV-17-C, Hexanoyl-RYYRWR-NH2] (Hexanoyl-RYYRWR-NH2) | – | – | – | analgesic activity and potentiation of morphine analgesia in vivo [1]: no measurable in vivo activity; IC50 (human ORL1 [2]): 2.6 nM; potency as antagonist relative to N^1-Phe-nociceptin (1-13)NH2 (human ORL1 [3]; FIG. 2): at least 10 times; stimulation of [35S]GTPγS binding remaining (human ORL1 [3]; at 1 and 10 μM, with 10 nM nociceptin): 20%; [35S]GTPγS Binding Percent Stimulation (human ORL1 [4]; Table 1): 18%; agonist/antagonist character at ORL1 (human ORL1 [4]): very low efficacy compound
2 | CCCCC(=O)N[C@@H](CCCNC(=N)N)C(=O)N[C@@H](Cc1ccc(O)cc1)C(=O)N[C@@H](Cc1ccc(O)cc1)C(=O)N[C@@H](CCCNC(=N)N)C(=O)N[C@@H](Cc1c[nH]c2ccccc12)C(=O)N[C@@H](CCCNC(=N)N)C(N)=O [VII-7-B, Pentanoyl-Arg-Tyr-Tyr-Arg-Trp-Arg-NH2] (Pentanoyl-RYYRWR-NH2) | 0.8 | FLAT | < 20 | effect on morphine-induced analgesia (mice [5]; 10 nmol alone or with N/OFQ, 5 minutes post-injection): reduction in morphine-induced analgesia; effect on nociceptin action on morphine analgesia (mice [5]; 10 and 20 minutes post injection): did not alter the effects of nociceptin; reversal of nociceptin's inhibition of morphine-induced analgesia (mice [5]; morphine + nociceptin + 3 or 10 nmol antagonist icv, FIG. 11): did not reverse the inhibition of morphine-induced analgesia; shift of nociceptin dose response curve (human ORL1 [3]; FIG. 9): dose-dependent parallel shift; pA2, Schild analysis (human ORL1 [3]; nociceptin dose response curve): 8.99±0.05; slope, Schild analysis (human ORL1 [3]; nociceptin dose response curve): −1.02; agonist/antagonist character at ORL1 (human ORL1 [4]): very potent antagonist; analgesic effect (% antinociception) (mice [6]; 10.0 and 30.0 nmol icv, 10 and 20 minutes post-injection): showed analgesic properties
3 | CC(=O)N[C@@H](CCCNC(=N)N)C(=O)N[C@@H](Cc1ccc(O)cc1)C(=O)N[C@@H](Cc1ccc(O)cc1)C(=O)N[C@@H](CCCNC(=N)N)C(=O)N[C@@H](Cc1c[nH]c2ccccc12)C(=O)NCCCCCC(N)=O [VII-57-C, Ac-Arg-Tyr-Tyr-Arg-Trp-ε-aminocaproyl-NH2] (Ac-RYYRW[Ahx]-NH2) | 0.95 | – | 37.4 ± 2.64 | –
4 | CC(=O)N[C@@H](CCCNC(=N)N)C(=O)N[C@@H](Cc1ccc(O)cc1)C(=O)N[C@@H](Cc1ccc(F)cc1)C(=O)N[C@@H](CCCNC(=N)N)C(=O)N[C@@H](Cc1c[nH]c2ccccc12)C(=O)N[C@@H](CCCNC(=N)N)C(N)=O [VII-61-B, Ac-Arg-Tyr-Phe(4-F)-Arg-Trp-Arg-NH2] (Ac-RY[Phe(4-F)]RWR-NH2) | 1.05 | – | 70.4 ± 1.98 | Ki (human ORL1 [2]): 0.05 nM
5 | CC(=O)N[C@@H](CCCNC(=N)N)C(=O)N[C@@H](Cc1ccc(O)cc1)C(=O)N[C@@H](Cc1ccc([N+](=O)[O-])cc1)C(=O)N[C@@H](CCCNC(=N)N)C(=O)N[C@@H](Cc1c[nH]c2ccccc12)C(=O)N[C@@H](CCCNC(=N)N)C(N)=O [VII-63-B, Ac-Arg-Tyr-Phe(4-NO2)-Arg-Trp-Arg-NH2] (Ac-RY[Phe(4-NO2)]RWR-NH2) | 1.01 | – | 43.2 ± 0.59 | –
6 | CC(=O)N[C@@H](CN)C(=O)N[C@@H](Cc1ccc(O)cc1)C(=O)N[C@@H](Cc1ccc(O)cc1)C(=O)N[C@@H](CCCNC(=N)N)C(=O)N[C@@H](Cc1c[nH]c2ccccc12)C(=O)N[C@@H](CCCNC(=N)N)C(N)=O [VII-65-F, Ac-Dap-Tyr-Tyr-Arg-Trp-Arg-NH2] (Ac-[Dap]YYRWR-NH2) | 1.1 | FLAT | 13.7 ± 1.18 | –
7 | CC(=O)N[C@@H](CCN)C(=O)N[C@@H](Cc1ccc(O)cc1)C(=O)N[C@@H](Cc1ccc(O)cc1)C(=O)N[C@@H](CCCNC(=N)N)C(=O)N[C@@H](Cc1c[nH]c2ccccc12)C(=O)N[C@@H](CCCNC(=N)N)C(N)=O [VII-67-A, Ac-Dab-Tyr-Tyr-Arg-Trp-Arg-NH2] (Ac-[Dab]YYRWR-NH2) | 1.07 | FLAT | < 20 | –
8 | CC(=O)N[C@@H](CCCNC(=N)N)C(=O)N[C@@H](Cc1ccc(O)cc1)C(=O)N[C@@H](CCc1ccc([N+](=O)[O-])cc1[N+](=O)[O-])C(=O)N[C@@H](CCCNC(=N)N)C(=O)N[C@@H](Cc1c[nH]c2ccccc12)C(=O)N[C@@H](CCCNC(=N)N)C(N)=O [VII-71-B, Ac-Arg-Tyr-hPhe(2,4-di-NO2)-Arg-Trp-Arg-NH2] (Ac-RY[X1]RWR-NH2) | 0.88 | – | 33.6 ± 16.8 | –
9 | CC(=O)N[C@@H](CCCNC(=N)N)C(=O)N[C@@H](Cc1ccc(O)cc1)C(=O)N[C@@H](Cc1c(C)cc(O)cc1C)C(=O)N[C@@H](CCCNC(=N)N)C(=O)N[C@@H](Cc1c[nH]c2ccccc12)C(=O)N[C@@H](CCCNC(=N)N)C(N)=O [VII-73-A, Ac-Arg-Tyr-Tyr(2,6-di-Me)-Arg-Trp-Arg-NH2] (Ac-RY[Dmt]RWR-NH2) | 0.95 | – | 52.7 ± 0.175 | –
10 | CC(=O)N[C@@H](CCCNC(=N)N)C(=O)N[C@@H](Cc1ccc(O)cc1)C(=O)N[C@@H](Cc1ccc(CS(=O)(=O)O)cc1)C(=O)N[C@@H](CCCNC(=N)N)C(=O)N[C@@H](Cc1c[nH]c2ccccc12)C(=O)N[C@@H](CCCNC(=N)N)C(N)=O [VII-75-B, Ac-Arg-Tyr-Phe(4-CH2SO3H)-Arg-Trp-Arg-NH2] (Ac-RY[Phe(4-CH2SO3H)]RWR-NH2) | 0.75 | FLAT | < 20 | –
11 | CC(=O)Nc1ccc(C[C@H](NC(=O)[C@H](Cc2ccc(O)cc2)NC(=O)[C@H](CCCNC(=N)N)NC(C)=O)C(=O)N[C@@H](CCCNC(=N)N)C(=O)N[C@@H](Cc2c[nH]c3ccccc23)C(=O)N[C@@H](CCCNC(=N)N)C(N)=O)cc1 [VII-77-A, Ac-Arg-Tyr-Phe(4-NHAc)-Arg-Trp-Arg-NH2] (Ac-RY[Phe(4-NH2)](Ac)RWR-NH2) | 0.62 | – | 19 ± 6.92 | –
12 | CC(=O)N[C@@H](CCCNC(=N)N)C(=O)N[C@@H](Cc1ccc(O)cc1)C(=O)N[C@@H](Cc1ccc(CN)cc1)C(=O)N[C@@H](CCCNC(=N)N)C(=O)N[C@@H](Cc1c[nH]c2ccccc12)C(=O)N[C@@H](CCCNC(=N)N)C(N)=O [VII-79-A, Ac-Arg-Tyr-Phe(4-CH2NH2)-Arg-Trp-Arg-NH2] (Ac-RY[Phe(4-CH2NH2)]RWR-NH2) | 0.89 | FLAT | < 20 | –
13 | CC(=O)N[C@@H](CCCNC(=N)N)C(=O)N[C@@H](Cc1ccc(O)c(Cl)c1)C(=O)N[C@@H](Cc1ccc(O)cc1)C(=O)N[C@@H](CCCNC(=N)N)C(=O)N[C@@H](Cc1c[nH]c2ccccc12)C(=O)N[C@@H](CCCNC(=N)N)C(N)=O [VII-87-B, Ac-Arg-Tyr(3-Cl)-Tyr-Arg-Trp-Arg-NH2] (Ac-R[Tyr(3-Cl)]YRWR-NH2) | – | – | 72 | reversal of morphine-induced analgesia (mice [5]; morphine 10 nmol + 0.1, 1.0, 10.0 nmol agonist icv, at 10 and 20 minutes with 10 nmol): dose-dependent reversal of morphine-induced analgesia; agonist/antagonist character at ORL1 (human ORL1 [4]): agonist; effect on nociception (% antinociception) (mice [6]; 10 nmol icv, 5, 10 and 20 minutes post-injection): induced pro-nociception
14 | Ac-Arg-Tyr(BN*, 3-Cl)-Tyr-Arg-Trp-Arg-NH2 (Ac-R[Tyr(BN∗,3-Cl)]YRWR-NH2; reading uncertain; also: printed as Ac-Arg-Tyr(BN*, 3-Cl)-Tyr-Arg-Trp-Arg-NH2) [VII-39-D] | 1.03 | – | – | effect on morphine-induced analgesia (mice [5]; morphine 10 nmol + 1.0 and 10 nmol agonist icv, 5, 10 and 20 minutes): attenuation of morphine-induced analgesia; agonist/antagonist character at ORL1 (human ORL1 [4]): full agonist; effect on nociception (% antinociception) (mice [6]; 0.1, 1.0 or 10.0 nmol icv, 5, 10 and 20 minutes post-injection): did not induce anti- or pro-nociception
15 | Ac-RY(D)YR(D)WRNH2 [IV-12-B] | – | – | – | IC50 (human ORL1 [2]; read-out: [3H]nociceptin Binding IC50, Table 1): 1140 nM; EC50 (human ORL1 [4]; Table 1, read-out: [35S]GTPγS Binding EC50): > 10000 nM; [35S]GTPγS Binding Percent Stimulation (human ORL1 [4]; Table 1): <10%
16 | β-Nva-Arg-Tyr-Tyr-Arg-Trp-Arg-NH2 (βNva-RYYRWR-NH2) [VII-2-A] | 1.0 | FLAT | – | –
